According to US9561228B2 (Celgene Avilomics Research, Inc., priority 2013, dated 2017):
Like-named read-outs stand apart in the source and are kept apart here.

How the values were obtained:
[1] = system: ERK1/2 phosphorylation of p90RSK in HT29 cells; assay: pRSK MSD Assay in HT29 cells; type: cell-based; conditions: Homo sapiens, HT-29, read-out: ERK1/ERK2 PRSK MSD HT29 EC50
Summary of the method: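 Serum-starved HT29 cells (0.1% FBS overnight) treated with test compound for 120 min at 37° C, then lysed with protease and phosphatase inhibitors. Phospho-p90RSK quantified by MSD sandwich immunoassay: RSK capture antibody, phospho-RSK detection antibody plus Sulfo-tagged antibody, electrochemiluminescence read.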

[2] = system: A375 cells (malignant melanoma); assay: Inhibition of cancer cell proliferation, A375 (CellTiterGlo, 72 hours); type: cell-based; conditions: Homo sapiens, A-375
Summary of the method: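 A375 melanoma cells, 3000/well, exposed 72 h at 37 °C to compound in 3-fold serial dilutions (solution added as 2× stock starting at 5,000 nM in serum-free DMEM). CellTiterGlo luminescence converted to cell number via standard curve; % inhibition vs untreated control, GI50 from curve fit.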

Erk1 = target: T1, Erk1 (Homo sapiens, UniProt P27361); assay: Protein Mass Modification Assay (intact protein MALDI, 60 min, 10-fold excess of compound); type: binding
T1 construct: purchased Millipore 14-439
Summary of the method: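 Human Erk1 was incubated 60 min at room temperature with a 10-fold molar excess of compound, then analysed as intact protein by MALDI with sinapinic acid matrix. The centroid mass shift versus untreated protein was divided by compound molecular weight to give percent modified protein.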

MEK1 activated ERK1 = target: T2, MEK1 activated ERK1 (Homo sapiens, UniProt P27361); assay: Omnia continuous-read kinase assay for potency against MEK1 activated ERK1; type: biochemical
T2 construct: purchased Millipore (Billerica, Mass.) 14-439-K
Summary of the method: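 Apparent IC50 came from initial reaction slopes (RFU vs time) plotted against log inhibitor with a variable-slope fit. Reactions were started with ERK1 (4 nM final) added to 50 μM ATP, roughly at its appKM, and 10 μM Sox-conjugated ST17 peptide in 20 mM Tris pH 7.5, 5 mM MgCl2. Fluorescence was monitored every 71 seconds.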

[3] = MEK1 activated ERK1, ATP at KM, read-out: ERK1 Omnia WT ATP KM IC50

T1 sequence (P27361 whole entry): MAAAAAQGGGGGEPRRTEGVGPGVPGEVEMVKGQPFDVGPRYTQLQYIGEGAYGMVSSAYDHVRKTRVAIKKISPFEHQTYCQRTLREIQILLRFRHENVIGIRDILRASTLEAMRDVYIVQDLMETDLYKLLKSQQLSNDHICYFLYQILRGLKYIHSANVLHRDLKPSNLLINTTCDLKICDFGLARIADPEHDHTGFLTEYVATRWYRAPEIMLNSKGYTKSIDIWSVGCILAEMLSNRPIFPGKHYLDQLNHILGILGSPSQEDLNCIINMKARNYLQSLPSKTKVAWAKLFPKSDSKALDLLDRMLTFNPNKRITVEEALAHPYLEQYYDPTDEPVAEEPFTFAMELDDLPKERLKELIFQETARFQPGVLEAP
T2 sequence (P27361 whole entry): as above

SMILES	EC50 [1] [nM]	GI50 [2] [nM]	ERK1 Mass Mod (%) (Erk1)	IC50 (MEK1 activated ERK1; ATP at KM, WT) [nM]	IC50 (MEK1 activated ERK1; [3]) [nM]
C=CC(=O)Nc1cc(C)ccc1Nc1nc(Nc2cc(C(C)=O)ccc2C)ncc1C(F)(F)F [Compound I-84, N-(2-((2-((5-Acetyl-2-methylphenyl)amino)-5-(trifluoromethyl)pyrimidin-4-yl)amino)-5-methylphenyl)acrylamide]	< 100	101 to 500	E (key: E: a mass modification of ≧70%; F: a mass modification of 31-69%; G: a mass modification ≦30%)	–	101 to 500
C=CC(=O)Nc1cc(C)ccc1Nc1nc(Nc2nc(OC)ncc2C(F)(F)F)ncc1C(F)(F)F [Compound I-355, N-(2-((2-((2-methoxy-5-(trifluoromethyl)pyrimidin-4-yl)amino)-5-(trifluoromethyl)pyrimidin-4-yl)amino)-5-methylphenyl)acrylamide]	101 to 500	101 to 500	E (a mass modification of ≧70%)	101 to 500	–
C=CC(=O)Nc1cc(C)c(F)cc1Nc1nc(Nc2nc(OC)ncc2Cl)ncc1C(F)(F)F [Compound I-374, N-(2-((2-((5-chloro-2-methoxypyrimidin-4-yl)amino)-5-(trifluoromethyl)pyrimidin-4-yl)amino)-4-fluoro-5-methylphenyl)acrylamide]	< 100	< 100	E (a mass modification of ≧70%)	< 100	–
C=CC(=O)Nc1cc(C)ccc1Nc1nc(Nc2nc(OC)ccc2Cl)ncc1C(F)(F)F [Compound I-360, N-(2-((2-((3-chloro-6-methoxypyridin-2-yl)amino)-5-(trifluoromethyl)pyrimidin-4-yl)amino)-5-methylphenyl)acrylamide]	101 to 500	101 to 500	E (a mass modification of ≧70%)	–	–
C=CC(=O)Nc1cc(C)ccc1Nc1nc(Nc2cc(OCCOC)ncc2C)ncc1C(F)(F)F [Compound I-359, N-(2-((2-((2-(2-methoxyethoxy)-5-methylpyridin-4-yl)amino)-5-(trifluoromethyl)pyrimidin-4-yl)amino)-5-methylphenyl)acrylamide]	101 to 500	101 to 500	E (a mass modification of ≧70%)	101 to 500	–
C=CC(=O)Nc1cc(C)ccc1Nc1nc(Nc2cc(OC)nc(OC)c2)ncc1C(F)(F)F [Compound I-96]	–	101 to 500	E (key: E: a mass modification of ≧70%; F: a mass modification of 31-69%; G: a mass modification ≦30%)	–	101 to 500
C=CC(=O)Nc1cc(CN2CCN(C(C)=O)CC2)ccc1Nc1nc(Nc2cc(OC)ncc2C)ncc1C(F)(F)F [Compound I-381, N-(5-((4-acetylpiperazin-1-yl)methyl)-2-((2-((2-methoxy-5-methylpyridin-4-yl)amino)-5-(trifluoromethyl)pyrimidin-4-yl)amino)phenyl)acrylamide]	< 100	101 to 500	E (a mass modification of ≧70%)	< 100	–
C=CC(=O)Nc1cc(CN2CCN(C(=O)c3cnccn3)CC2)ccc1Nc1nc(Nc2cc(OC)ncc2C)ncc1C(F)(F)F [Compound I-390, N-(2-((2-((2-methoxy-5-methylpyridin-4-yl)amino)-5-(trifluoromethyl)pyrimidin-4-yl)amino)-5-((4-(pyrazine-2-carbonyl)piperazin-1-yl)methyl)phenyl)acrylamide]	< 100	< 100	E (a mass modification of ≧70%)	< 100	–
C=CC(=O)Nc1cc(CN2CCN(S(C)(=O)=O)CC2)ccc1Nc1nc(Nc2cc(OC)ncc2C)ncc1C(F)(F)F [Compound I-384, N-(2-((2-((2-methoxy-5-methylpyridin-4-yl)amino)-5-(trifluoromethyl)pyrimidin-4-yl)amino)-5-((4-(methylsulfonyl)piperazin-1-yl)methyl)phenyl)acrylamide]	< 100	< 100	E (a mass modification of ≧70%)	< 100	–
C=CC(=O)Nc1cc(C)ccc1Nc1nc(Nc2cc(N[C@H]3CC[C@](C)(O)CC3)nc(OC)c2)ncc1C(F)(F)F [Compound I-327, N-(2-((2-((2-((trans-4-hydroxy-4-methylcyclohexyl)amino)-6-methoxypyridin-4-yl)amino)-5-(trifluoromethyl)pyrimidin-4-yl)amino)-5-methylphenyl)acrylamide]	–	< 100	E (a mass modification of ≧70%)	–	101 to 500
C=CC(=O)Nc1cc(C)ccc1Nc1nc(Nc2cc(OC)cnc2Cl)ncc1C(F)(F)F [Compound I-361, N-(2-((2-((2-chloro-5-methoxypyridin-3-yl)amino)-5-(trifluoromethyl)pyrimidin-4-yl)amino)-5-methylphenyl)acrylamide]	< 100	101 to 500	E (a mass modification of ≧70%)	–	–
C=CC(=O)Nc1ccccc1Nc1nc(Nc2cc(OC)nc(N3CCN(C(C)=O)CC3)c2)ncc1C(F)(F)F [Compound I-92]	–	< 100	E (a mass modification of ≧70%)	–	< 100
C=CC(=O)Nc1cc(C)ccc1Nc1nc(Nc2nc(OC)ncc2Cl)ncc1C(F)(F)F [Compound I-344, N-(2-((2-((5-chloro-2-methoxypyrimidin-4-yl)amino)-5-(trifluoromethyl)pyrimidin-4-yl)amino)-5-methylphenyl)acrylamide]	–	101 to 500	E (a mass modification of ≧70%)	–	–
C=CC(=O)Nc1cc(CN2CCN(C(=O)CO)CC2)ccc1Nc1nc(Nc2cc(OC)ncc2C)ncc1C(F)(F)F [Compound I-385, N-(5-((4-(2-hydroxyacetyl)piperazin-1-yl)methyl)-2-((2-((2-methoxy-5-methylpyridin-4-yl)amino)-5-(trifluoromethyl)pyrimidin-4-yl)amino)phenyl)acrylamide]	< 100	–	E (a mass modification of ≧70%)	< 100	–
C=CC(=O)Nc1cc(C)c(F)cc1Nc1nc(Nc2cc(OC)ncc2C)ncc1C(F)(F)F [Compound I-366, N-(4-fluoro-2-((2-((2-methoxy-5-methylpyridin-4-yl)amino)-5-(trifluoromethyl)pyrimidin-4-yl)amino)-5-methylphenyl)acrylamide]	> 1000	–	E (a mass modification of ≧70%)	> 1000	–

The next lines start with results.

EC50 [1] [nM]	GI50 [2] [nM]	ERK1 Mass Mod (%) (Erk1)	IC50 (MEK1 activated ERK1; ATP at KM, WT) [nM]	SMILES	IC50 (MEK1 activated ERK1; [3]) [nM]
101 to 500	101 to 500	E (a mass modification of ≧70%)	101 to 500	C=CC(=O)Nc1cc(C)ccc1Nc1nc(Nc2nc(OC)ncc2OC)ncc1C(F)(F)F [Compound I-349, N-(2-((2-((2,5-dimethoxypyrimidin-4-yl)amino)-5-(trifluoromethyl)pyrimidin-4-yl)amino)-5-methylphenyl)acrylamide]	–
< 100	< 100	E (a mass modification of ≧70%)	< 100	C=CC(=O)Nc1cc(CN2CCN(C(=O)c3cccnc3)CC2)ccc1Nc1nc(Nc2cc(OC)ncc2C)ncc1C(F)(F)F [Compound I-389, N-(2-((2-((2-methoxy-5-methylpyridin-4-yl)amino)-5-(trifluoromethyl)pyrimidin-4-yl)amino)-5-((4-nicotinoylpiperazin-1-yl)methyl)phenyl)acrylamide]	–
< 100	< 100	E (a mass modification of ≧70%)	–	C=CC(=O)Nc1cc(C)ccc1Nc1nc(Nc2nc(O)ncc2C)ncc1C(F)(F)F [Compound I-364, N-(2-((2-((2-hydroxy-5-methylpyrimidin-4-yl)amino)-5-(trifluoromethyl)pyrimidin-4-yl)amino)-5-methylphenyl)acrylamide]	–
501 to 999	–	E (a mass modification of ≧70%)	101 to 500	C=CC(=O)Nc1cc(C)ccc1Nc1nc(NC2CCC(=O)NC2)ncc1C(F)(F)F (racemic) [Compound I-368, Rac-N-(5-methyl-2-((2-((6-oxopiperidin-3-yl)amino)-5-(trifluoromethyl)pyrimidin-4-yl)amino)phenyl)acrylamide]	–
101 to 500	–	E (a mass modification of ≧70%)	101 to 500	C=CC(=O)Nc1cc(CN2CCN(C(C)=O)CC2)ccc1Nc1nc(Nc2nc(OC)ncc2C)ncc1C(F)(F)F [Compound I-382, N-(5-((4-acetylpiperazin-1-yl)methyl)-2-((2-((2-methoxy-5-methylpyrimidin-4-yl)amino)-5-(trifluoromethyl)pyrimidin-4-yl)amino)phenyl)acrylamide]	–
501 to 999	–	E (a mass modification of ≧70%)	101 to 500	C=CC(=O)Nc1cc(CN2CCN(C(=O)c3cccnc3)CC2)ccc1Nc1nc(Nc2nc(OC)ncc2C)ncc1C(F)(F)F [Compound I-392, N-(2-((2-((2-methoxy-5-methylpyrimidin-4-yl)amino)-5-(trifluoromethyl)pyrimidin-4-yl)amino)-5-((4-nicotinoylpiperazin-1-yl)methyl)phenyl)acrylamide]	–
